Measurements as given in patent US20240262844A1, “PYRIDINIUM SALTS AND METHODS OF USE” (UNIVERSITY OF WYOMING, priority 2023, published 2024).
Counter-ions that a name gives are not always drawn.

Tested on: HEK293T cells
Test: In-situ chemoproteomic tryptophan profiling of live HEK293T cells (peptide-level enrichment)
Type: cell-based, Human
Description: Cell culture and in-situ tryptophan probe treatment: Cell lines were cultured at 37° C. with 5% C02. Human embryonic kidney 293 cells expressing a mutant version of the SV40 large T antigen (HEKT293T cells) were grown in Dulbecco's Modified Eagle Medium (DMEM, Gibco) supplemented with 10% fetal bovine serum and 1% penicillin/streptomycin. For in-situ labeling, cells were grown to 90% confluence, washed with Dulbecco's phosphate buffered saline (DPBS), treated with 100x stocks of the tryptophan probes (the pyridinium salts) in OptiMem (GibCo) to generate final concentrations (0 μM, 1 μM, 10 μM, and 100 μM) in 1% dimethylsulfoxide (DMSO). Cells were incubated for 1 hour at 37° C. with 5% C02 followed by photo-activation at the respective wavelengths for 20 minutes at 4° C. Cells were harvested with a cell scraper, washed 3× with DPBS, and pellets were stored at −80° C. until further use. The following light sources were used for photo-activation: • Pyridinium salt 1a (also called, probe 1a): wavelength=302 nm; light source=Analytikjena, UVP 3UV Lamp, 8W. • Pyridinium salt 1b (also called, probe 1b): wavelength=320 nm; light source=Analytikjena, UVP 3UV Lamp, 8W, equipped with 320 nm long-pass filter. • Pyridinium salt 2b (also called, probe 2b): wavelength=440 nm; light source=Kessil PR-160L-440 nm LED, 45W. • Pyridinium salt 2d (also called, probe 2d): wavelength=440 nm; light source=Kessil PR-160L-440 nm LED, 45W.
In-situ tryptophan probe sample processing for peptide-level characterization: Cell pellets were lysed via sonication (QSonica) at 50% amplitude, 2 seconds ON, 3 seconds OFF, 30 seconds in 40 mM HEPES pH 7.5 (4-(2-hydroxyethyl)-1-piperazineethanesulfonic acid), 1.5 mM magnesium chloride (MgCl2), 1% Sodium dodecyl sulfate (SDS), 0.8% NP-40 (also known as nonyl phenoxypolyethoxylethanol), and 1x protease inhibitors (Thermo). Protein concentration was determined by BCA (Pierce). 400 μg protein lysate were taken for copper-catalyzed azide-alkyne cycloaddition (CuAAC) reactions with 100 μM of the acid cleavable DAPBS Biotin Alkyne (Click Chemistry Tools), 250 μM copper sulfate (CuSO4), 500 μM BTTP (C20H34N10O2) (Click Chemistry Tools), and 2.5 mM ascorbate and incubated for 60 minutes at R.T. Samples were precipitated with methanol:chloroform and re-suspended in 50 mM HEPES pH 8.0 containing 1% RapiGest SF (Waters). The samples were reduced with 10 mM dithiothreitol (DTT) (Pierce) and alkylated with 25 mM iodoacetamide (Pierce). The samples were diluted down to 0.1% RapiGest SF and treated with 4 μg Trypsin/LysC (Promega) at 37° C. for 16 hours. The digested peptides were than labeled with isobaric tandem mass tag (TMT) reagents (Thermo) as specified by the manufacturer. The labeled peptides were then combined, concentrated to remove acetonitrile, and re-suspended in 50 mM HEPES pH 8.0 containing 0.2% SDS. The labeled peptides were then treated with 100 μL Neutravidin resin as a 50% slurry (Peirce) for 16 hours at R.T. The following day, the Neutravidin resin was washed extensively with 50 mM HEPES pH 8.0 containing 0.2% SDS (3×), 50 mM HEPES pH 8.0 (5x), and double-distilled water (ddH2O) (5×). The bound peptides were then cleaved from the resin by incubating with 100 μL 10% formic acid for 30 minutes (2×).
Quantitative proteomics by two-dimensional nano liquid chromatography-tandem mass spectrometry (nLC-MS/MS): For protein-level characterization, the TMT-labeled sample were reconstituted in 0.1% formic acid (FA)/2% acetonitrile for offline high-pH reversed phase separation (RP10) using a Dionex UltiMate 3000 high-performance liquid chromatography (HPLC) system with fraction collection using Chromeleon v.6.8 (Thermo) software. Separation was achieved on a Waters Xbridge C18 3.5 μm 2.1×150 mm HPLC column (Waters) using a flow rate of 250 μL min-1 and the following ternary gradient and conditions: mobile phase A=water (HPLC grade), mobile phase B=acetonitrile (HPLC grade), and mobile phase C=200 mM ammonium acetate, pH 10. […]

[1] = about 100 μM probe, 60 min 37° C., 440 nm 20 min 4° C.

plasma membrane permeation (inferred from subcellular localization of labeled proteins): readily crosses the plasma membrane | thermal stability under whole cell culture conditions (no peptide enrichment without 440 nm photoirradiation): robust thermal stability
SMILES: COc1ccc2cc(-c3cc(C)[n+](N(C)C(=O)OCCCCCCN=[N+]=[N-])c(C)c3)ccc2c1 [Pyridinium salt 2d, 1-((((6-azidohexyl)oxy)carbonyl)(methyl)amino)-4-(6-methoxynaphthalen-2-yl)-2,6-dimethylpyridin-1-ium tetrafluoroborate]
probe concentration giving measurable two-fold enrichment of Trp-modified peptides (440 nm photoirradiation): about 10 μM | number of Trp-modified peptide fragments showing dose-response behavior [1]: 290 | number of unique proteins corresponding to Trp-modified peptide fragments [1]: 209 | number of unique peptides harboring a tryptophan modification (chemoselectivity profile, in situ): 221 | selectivity for tryptophan, relative amino acid frequency taken into account (versus His, Tyr, Cys modifications, in situ): about 82%
